“And” between values parts separate entries of the source, which are not always exact repeats. Equal entries are not always repeated. Marks after values point to notes of the source that are not given here.
Legend:
[1] = Whole-body dose rate measurement at a distance of 2 m and calculation of effective half-life; format: in vivo, patients; conditions: for Calculated effective half-life T1/2eff, max / Calculated effective half-life T1/2eff, mean / Calculated effective half-life T1/2eff, min: mono-exponential fit of dose rate
Procedure: The measurements and analyses were carried out with 50 patients from both departments as characterized in Table 1. All patients of Department 2 were released from the hospital 72 h p. i. for organizational reasons. Therefore, dose rate measurements were also available for ti = 72 h p. i.
In both departments, the dose rate monitor LB 123 D-H10 (Berthold Technologies, Bad Wildbad, Germany) was used, which is suitable for dose rate levels between 0.05 μSv/h and 10 mSv/h within an energy range from 30 keV to 1.3 MeV. The systems were officially calibrated, and regular quality checks were carried out. The patients were measured in the standing position from the anterior (DRA) and posterior (DRP) view at a distance of 2 m from the surface of the detector. The dose rate DR for different time points (see Table 1) was then calculated as the geometric mean of both measurements5 DRti=DRAti∙DRPti.
The data were fitted by a mono-exponential curve, and the effective half-life was calculated for the different time points: 24, 48, and 72 h (only from the data of Department 2). […] For all comparisons, the time point 48 h was chosen as the reference, because it is standard that the patients are released from the therapy ward after 48 h. Subsequently, Eq. 4 was used to determine the dose D to the public after the discharge of the patient for different time points of release (24, 48, and 72 h p. i.), substituting T1/2eff by T1/2ind (individual half-life of each patient), T1/2phys (physical half-life of ^177Lu), and T1/2max (maximum of the calculated effective half-life of the patient cohort) for different calculations. In addition, a correlation analysis (Spearman and Pearson) of the dose rate and administered activity was performed.

[2] = Whole-body activity measurement with external gamma probe and analysis of excreted activity; format: in vivo, patients; conditions: 25 patients (Department 2)
Procedure: The analysis of the excretion of unbound ^177Lu-PSMA ligands and lutetium-177 was performed indirectly by measuring the remaining activity within the body of the patients at different time points with an external gamma probe. This has been proven to be a fast, simple, and robust method to estimate the activity within the body of the patient. The difference compared with the expected activity that can be calculated directly by the physical decay of the administered activity is assumed to be equivalent to the excreted activity.
The measurements were carried out in Department 2, using a cohort of 25 patients (see Table 1). The whole-body activity was measured at 0 h (before voiding, reference) and approximately at 2, 4, 12, 24, 48, and 72 h after the administration of ^177Lu-PSMA-617.
The remaining activity AWB in the patient at the given time point ti was determined by the following equation:1 AWBti=CAti⋅CPti/CFP, where cA(ti) and cP(ti) are the count rates (compensated for the background) at the given time point for the anterior and posterior views respectively. CFP is a patient-specific calibration factor based on a baseline measurement of each patient, performed immediately after administration of ^177Lu-PSMA-617 and before the first voiding of the bladder. This factor is calculated according to the following equation:2 CFP=CA0⋅Cp0/AP, where AP is the administered activity. This factor represents the efficiency of the detector for the spatially distributed activity and intrinsically considers the self-attenuation of the γ photons by the body of the patient.
The excreted activity Aex at the time point ti was calculated as the difference of the whole-body activity at the previous time point ti − 1 (corrected for decay) and the whole-body activity at the time point ti. The whole extracted activity can then be calculated as a summation:3 Aex=∑j=1iAWBti−1e^−ln2/T1/2∙ti−ti−1−AWBti,
A 3″ × 3″-NaI (Tl) detector (Type 905-4) with multichannel analyzer and software (digiBASE, MAESTRO, Ortec, Oak Ridge, USA) was used as a measurement system. It was calibrated using americium-241, cobalt-57, cesium-137, and iodine-131 test sources, and regular quality checks were carried out. The shielded detector (collimator of 3 cm lead) was positioned 1 m above the floor, and the field of view covered the whole body of the patient. The energy window was set to 208 keV ± 27%, corresponding to approximately 3 × full width at half maximum of the energy resolution of the NaI (Tl) detector. The background was measured for 300 s without the presence of a patient. Patients were measured in anterior and posterior standing positions while holding arms close to the body at a distance of 2 m from the collimator surface. For all measurements, the acquisition time corrected for dead-time effects was set to 90 s. […] No further corrections (e.g., for pile-up or non-linearity) were applied. Statistical uncertainties of the count rate were below 1% for all measurements, as recommended by Hindorf et al.. Bi-exponential functions were fitted to the data, and the effective half-lives were calculated. The bi-exponential fit model was chosen after comparing the quality of fit of mono- and bi-exponential models using the Akaike criterion as described by Kletting et al..

[3] = time point 24.2 ± 0.7 h (from 2 h/4 h and 24 h)
[4] = time point 67.7 ± 2.3 h (72 h; from 24, 48 and 72 h), 25 patients (Department 2)
[5] = time point 45.7 ± 2.1 h p. i. (48 h)
[6] = time point 67.7 ± 2.3 h p. i. (72 h), 25 patients (Department 2)

In the case of `O=C([O-])CN1CCN(CC(=O)[O-])CCN(CC(=O)NCC2CCC(C(=O)N[C@@H](Cc3ccc4ccccc4c3)C(=O)NCCCC[C@H](NC(=O)N[C@@H](CCC(=O)O)C(=O)O)C(=O)O)CC2)CCN(CC(=O)[O-])CC1.[177Lu+3]` (some centres unmarked) [^177Lu-PSMA-617], the “Calculated effective half-life T1/2eff, max” value [1, 3] was 73.5 h, the “Calculated effective half-life T1/2eff, mean” value [1, 3] was 26.0 h and the “Calculated effective half-life T1/2eff, min” value [1, 3] was 11.0 h. For the same molecule, the “Calculated effective half-life T1/2eff, min” value ([1]; time point 45.7 ± 2.1 h (48 h; from 24 h and 48 h)) was 21.7 h, the “Calculated effective half-life T1/2eff, max” value [1, 4] was 74.5^a h and the “Calculated effective half-life T1/2eff, mean” value [1, 4] was 38.4^a h. For the same molecule, the “Calculated effective half-life T1/2eff, min” value [1, 4] was 25.7^a h, the “Dose rate (measured at a distance of 2 m), max” value (“Dose rate … max” below) ([1]; time point 2 ± 0.3 h p. i.) was 5.0 μSv/h and the “Dose rate (measured at a distance of 2 m), mean” value (“Dose rate … mean” for short) ([1]; time point 2 ± 0.3 h p. i.) was 3.6 ± 0.7 μSv/h and 3.6 μSv/h. For the same molecule, the “Dose rate (measured at a distance of 2 m), min” value (shortened to “Dose rate … min”) ([1]; time point 2 ± 0.3 h p. i.) was 2.2 μSv/h, the “Dose rate … max” value ([1]; time point 3.9 ± 0.7 h p. i.) was 3.8 μSv/h and the “Dose rate … mean” value ([1]; time point 3.9 ± 0.7 h p. i.) was 2.8 μSv/h. The “Dose rate … min” value ([1]; time point 3.9 ± 0.7 h p. i.) was 1.3 μSv/h, the “Dose rate … mean” value ([1]; time point 24.2 ± 0.7 h p. i.) was 1.6 ± 0.6 μSv/h and 1.6 μSv/h and the “Dose rate … min” value ([1]; time point 24.2 ± 0.7 h p. i.) was 0.5 μSv/h. The “Dose rate … max” value [1, 5] was 2.3 μSv/h, the “Dose rate … mean” value [1, 5] was 1.1 ± 0.5 μSv/h and 1.1 μSv/h and the “Dose rate … min” value [1, 5] was 0.4 μSv/h. For the same molecule, the “Dose rate … max” value [1, 6] was 2.1^a μSv/h, the “Dose rate … mean” value [1, 6] was 0.7 ± 0.4 μSv/h and 0.7^a μSv/h and the “Dose rate … min” value [1, 6] was 0.1^a μSv/h. The “Excreted activity Aex between given time point and previous time point, max” value ([2]; 2 h p. i.) was 2621 MBq, the “Excreted activity Aex between given time point and previous time point, mean” value ([2]; 2 h p. i.) was 1718 MBq and the “Excreted activity Aex between given time point and previous time point, min” value ([2]; 2 h p. i.) was 735 MBq. For the same molecule, the “Overall excreted activity as percentage of administered activity, max” value (shortened to “Overall excreted activity as percentage … max”) ([2]; 2 h p. i.) was 42%, the “Overall excreted activity as percentage of administered activity, mean” value ([2]; 2 h p. i.) was 30% and the “Overall excreted activity as percentage of administered activity, min” value ([2]; 2 h p. i.) was 13%. The “Excreted activity Aex between given time point and previous time point, max” value ([2]; 4 h p. i.) was 1526 MBq, the “Excreted activity Aex between given time point and previous time point, mean” value ([2]; 4 h p. i.) was 1265 MBq and the “Excreted activity Aex between given time point and previous time point, min” value ([2]; 4 h p. i.) was 1060 MBq. For the same molecule, the “Overall excreted activity as percentage … max” value ([2]; 4 h p. i.) was 62%, the “Overall excreted activity as percentage of administered activity, min” value ([2]; 4 h p. i.) was 30% and the “Excreted activity Aex between given time point and previous time point, max” value ([2]; 12 h p. i.) was 1323 MBq. The “Excreted activity Aex between given time point and previous time point, mean” value ([2]; 12 h p. i.) was 1155 MBq, the “Excreted activity Aex between given time point and previous time point, min” value ([2]; 12 h p. i.) was 1009 MBq and the “Overall excreted activity as percentage … max” value ([2]; 12 h p. i.) was 82%. The “Overall excreted activity as percentage of administered activity, min” value ([2]; 12 h p. i.) was 48%, the “Excreted activity Aex between given time point and previous time point, max” value ([2]; 24 h p. i.) was 474 MBq and the “Excreted activity Aex between given time point and previous time point, mean” value ([2]; 24 h p. i.) was 395 MBq. The “Excreted activity Aex between given time point and previous time point, min” value ([2]; 24 h p. i.) was 318 MBq, the “Overall excreted activity as percentage … max” value ([2]; 24 h p. i.) was 87% and the “Overall excreted activity as percentage of administered activity, mean” value ([2]; 24 h p. i.) was 76%. The “Overall excreted activity as percentage of administered activity, min” value ([2]; 24 h p. i.) was 53% and the “Excreted activity Aex between given time point and previous time point, max” value ([2]; 48 h p. i.) was 265 MBq.
